Reference: US20060128654A1, “Pharmaceutical formulation of cytidine analogs and derivatives” (priority 2004, published 2006)

Assay: Chemical stability of decitabine in cyclodextrin solutions (HPLC potency, % of total peak areas at 220 nm)
Format: physicochemical
Method: The chemical stability of decitabine in the cyclodextrin solutions and in the phophate buffer as prepared above was determined. The initial decitabine concentration for all the solutions was 17-18 mg/mL at the beginning of the experiment at 2-8° C.; 9-10 mg/mL at the beginning of the experiment at 25° C. Decitabine potency was assayed by a HPLC method, and expressed as a percentage of total peak areas at 220 nm.

Structure (SMILES): Nc1ncn([C@H]2C[C@H](O)[C@@H](CO)O2)c(=O)n1 [decitabine, 5-aza-2′-deoxycytidine]
- Stability in aqueous solution with cyclodextrins as excipients (2-8° C., initial 17-18 mg/mL, FIG. 1): dramatically improve the stability
- Stabilization effect at various HPBCD concentrations (25° C., FIG. 3): concentration dependent
- Stability in aqueous solution with cyclodextrins as excipients (25° C., initial 9-10 mg/mL, FIG. 2): dramatically improve the stability
